Laboratory results: patent publication US20240425517A1, “NOVEL COMPOUND FOR DEGRADATION OF TARGET PROTEIN OR POLYPEPTIDE BY POLYUBIQUITINATION” (PRAZER THERAPEUTICS INC., priority 2021, published 2024)
Counter-ions that a name gives are not always drawn.

Biological target: T1, BRD4 proteins (Homo sapiens, UniProt O60885)
T1 construct: endogenous in cells; host or cells: MM.1S
Experiment: Degradation of BRD4 protein in MM.1S cell lines (Western blot densitometry)
Type: cell-based
Conditions: MM.1S cells, 10 μM, 24 hours
How it was run: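 MM.1S cells in RPMI-1640 with 10% FBS were treated with each degrader at 10 μM for 24 h. RIPA lysates were analysed by SDS-PAGE/Western blot with β-actin as reference, and BRD4 band densitometry was scored as reduction <40% (+), 40-<70% (++) or ≥70% (+++).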

Row | SMILES | BRD4 degrading capacity (%)
1 | COC(=O)c1ccc(NC(=O)CCCC(=O)OCC[C@@H]2N=C(c3ccc(Cl)cc3)c3c(sc(C)c3C)-n3c(C)nnc32)cc1C#CCN.Cl [5-106′, methyl (S)-2-(3-aminoprop-1-yn-1-yl)-4-(5-(2-(4-(4-chlorophenyl)-2,3,9-trimethyl-6H-thieno[3,2-f][1,2,4]triazolo[4,3-a][1,4]diazepin-6-yl)ethoxy)-5-oxopentanamido)benzoate hydrochloride] | + (the degrading capacity of each BRD4 degrader was reduced by less than 40%)
2 | Cc1sc2c(c1C)C(c1ccc(Cl)cc1)=N[C@@H](CC(=O)NCCCCCCCC(=O)Nc1cccc(C#CCN)c1)c1nnc(C)n1-2.Cl [5-107′, (S)—N-(3-(3-aminoprop-1-yn-1-yl)phenyl)-8-(2-(4-(4-chlorophenyl)-2,3,9-trimethyl-6H-thieno[3,2-f][1,2,4]triazolo[4,3-a][1,4]diazepin-6-yl)acetamido)octanamide hydrochloride] | ++ (the degrading capacity was reduced by 40% to 70% (exclusive of 70))
3 | Cc1sc2c(c1C)C(c1ccc(Cl)cc1)=N[C@@H](CC(=O)NCCCCCCCCCCC(=O)Nc1cccc(C#CCN)c1)c1nnc(C)n1-2.Cl [5-108′, (S)—N-(3-(3-aminoprop-1-yn-1-yl)phenyl)-11-(2-(4-(4-chlorophenyl)-2,3,9-trimethyl-6H-thieno[3,2-f][1,2,4]triazolo[4,3-a][1,4]diazepin-6-yl)acetamido)undecanamide hydrochloride] | +++ (the degrading capacity was reduced by 70% or more)
4 | Cc1sc2c(c1C)C(c1ccc(Cl)cc1)=N[C@@H](CCOC(=O)CCCCCCCCCC(=O)Nc1cccc(C#CCN)c1)c1nnc(C)n1-2.Cl [5-109′, (S)-2-(4-(4-chlorophenyl)-2,3,9-trimethyl-6H-thieno[3,2-f][1,2,4]triazolo[4,3-a][1,4]diazepin-6-yl)ethyl 11-((3-(3-aminoprop-1-yn-1-yl)phenyl)amino)-11-oxoundecanoate hydrochloride] | +++ (the degrading capacity was reduced by 70% or more)
5 | COC(=O)c1ccc(NC(=O)CCCCCCCCCC(=O)OCC[C@@H]2N=C(c3ccc(Cl)cc3)c3c(sc(C)c3C)-n3c(C)nnc32)cc1C#CCN.Cl [5-110′, methyl (S)-2-(3-aminoprop-1-yn-1-yl)-4-(11-(2-(4-(4-chlorophenyl)-2,3,9-trimethyl-6H-thieno[3,2-f][1,2,4]triazolo[4,3-a][1,4]diazepin-6-yl)ethoxy)-11-oxoundecanamido)benzoate hydrochloride] | ++ (the degrading capacity was reduced by 40% to 70% (exclusive of 70))
6 | Cc1sc2c(c1C)C(c1ccc(Cl)cc1)=N[C@@H](CC(=O)NCCCCCCCNC(=O)c1ccc(-c3ccc(C#CCN)cc3)o1)c1nnc(C)n1-2.Cl [5-111′, (S)-5-(4-(3-aminoprop-1-yn-1-yl)phenyl)-N-(7-(2-(4-(4-chlorophenyl)-2,3,9-trimethyl-6H-thieno[3,2-f][1,2,4]triazolo[4,3-a][1,4]diazepin-6-yl)acetamido)heptyl)furan-2-carboxamide hydrochloride] | ++ (the degrading capacity was reduced by 40% to 70% (exclusive of 70))
7 | COC(=O)c1ccc(NC(=O)CCCOC(=O)C[C@@H]2N=C(c3ccc(Cl)cc3)c3c(sc(C)c3C)-n3c(C)nnc32)cc1C#CCN [5-115′, methyl (S)-2-(3-aminoprop-1-yn-1-yl)-4-(4-(2-(4-(4-chlorophenyl)-2,3,9-trimethyl-6H-thieno[3,2-f][1,2,4]triazolo[4,3-a][1,4]diazepin-6-yl)acetoxy)butanamido)benzoate hydrochloride] | +++ (the degrading capacity was reduced by 70% or more)
8 | COC(=O)c1ccc(C#CCNC(=O)C[C@@H]2N=C(c3ccc(Cl)cc3)c3c(sc(C)c3C)-n3c(C)nnc32)cc1C#CCN.Cl [5-116′, methyl (S)-2-(3-aminoprop-1-yn-1-yl)-4-(3-(2-(4-(4-chlorophenyl)-2,3,9-trimethyl-6H-thieno[3,2-f][1,2,4]triazolo[4,3-a][1,4]diazepin-6-yl)acetamido)prop-1-yn-1-yl)benzoate hydrochloride] | +++ (the degrading capacity was reduced by 70% or more)
